Entries after “also recorded” stand apart in the source; their conditions may differ. Where two headings read alike, the source gives them in different places.

For assay [1], the target named is T1, ELIC-α1GABAAR (Homo sapiens, UniProt P14867). It is filed as binding. The procedure: One hundred microlitres of ELIC-α1GABAAR (0.3 μM) was transferred into a 50-μl window quartz cuvette maintained at 4°C, and NaI was added to the protein sample to a final concentration of 100 mM and incubated for 10 min. MQ290 was then added at a concentration of 3 μM for 3α-OH NS inhibition curves or 1 μM for 3β-OH NS inhibition curves and incubated for 30 min. One-microlitre aliquots of 3α-OH and 3β-OH NS from their corresponding stock solutions (prepared in Buffer A + 0.015% DDM) were added to achieve concentrations between 0.01 and 30 μM. The background emission spectra of ligands alone were obtained for each ligand concentration in the absence of protein and were subtracted from the protein-ligand emission spectra to yield background subtracted data. The MQ290 FRET spectra for different ligand concentrations were estimated using the method described above. The 370-nm intensities of the FRET spectra were plotted against ligand concentration and fitted to a four-parameter logistic curve to obtain IC50 data (GraphPad Software version 9.4.0, San Diego, CA). Ki values were calculated using the relationship: Ki=IC50/1+LT/Kd
T1 sequence (P14867 other isoform, or with tags, fused parts or gaps): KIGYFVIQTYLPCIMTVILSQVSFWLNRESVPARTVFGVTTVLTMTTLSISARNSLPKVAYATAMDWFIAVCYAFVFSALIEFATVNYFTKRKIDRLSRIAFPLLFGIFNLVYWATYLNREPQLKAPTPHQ
T1 sequence (P0C7B7 1-198, further chain): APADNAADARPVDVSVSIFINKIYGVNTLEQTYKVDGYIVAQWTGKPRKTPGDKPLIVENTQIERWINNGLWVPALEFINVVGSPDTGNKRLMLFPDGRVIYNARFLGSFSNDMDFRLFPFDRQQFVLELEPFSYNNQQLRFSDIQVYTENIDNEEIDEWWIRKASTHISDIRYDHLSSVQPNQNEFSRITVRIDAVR
where LT is the concentration of MQ290 and Kd was determined from the MQ290 binding curve.

For assay [2], the target named is T2, α1β3 GABAA receptors (Homo sapiens, UniProt P14867+P28472).
T2 construct: expressed in transfected cells; host or cells: Xenopus laevis oocytes, cRNA injected 5:1 (α1:β3)
T2 sequence (P14867 28-456): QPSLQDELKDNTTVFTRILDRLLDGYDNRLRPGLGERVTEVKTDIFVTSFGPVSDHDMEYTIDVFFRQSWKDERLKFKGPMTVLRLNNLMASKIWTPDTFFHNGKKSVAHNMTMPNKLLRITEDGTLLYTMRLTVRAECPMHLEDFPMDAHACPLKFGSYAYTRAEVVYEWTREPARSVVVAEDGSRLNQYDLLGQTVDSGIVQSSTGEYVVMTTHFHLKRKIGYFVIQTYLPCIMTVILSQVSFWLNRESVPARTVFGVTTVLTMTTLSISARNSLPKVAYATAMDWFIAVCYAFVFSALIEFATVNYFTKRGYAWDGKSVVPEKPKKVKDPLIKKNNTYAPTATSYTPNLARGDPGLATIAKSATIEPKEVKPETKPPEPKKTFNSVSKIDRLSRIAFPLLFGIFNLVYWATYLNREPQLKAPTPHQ
T2 sequence (P28472 26-473): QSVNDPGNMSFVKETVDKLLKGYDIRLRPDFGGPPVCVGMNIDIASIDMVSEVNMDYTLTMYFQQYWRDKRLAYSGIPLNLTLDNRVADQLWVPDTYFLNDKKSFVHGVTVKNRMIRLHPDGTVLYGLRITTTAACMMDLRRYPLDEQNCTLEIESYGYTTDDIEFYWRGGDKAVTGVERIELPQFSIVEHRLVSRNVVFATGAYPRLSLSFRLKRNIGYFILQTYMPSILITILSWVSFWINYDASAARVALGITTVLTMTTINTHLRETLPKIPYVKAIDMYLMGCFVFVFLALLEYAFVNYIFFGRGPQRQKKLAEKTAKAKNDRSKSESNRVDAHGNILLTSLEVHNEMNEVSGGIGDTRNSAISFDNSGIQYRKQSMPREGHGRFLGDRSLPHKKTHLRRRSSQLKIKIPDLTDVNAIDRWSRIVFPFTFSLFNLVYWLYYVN
In words: Two-electrode voltage clamp of GABA-elicited currents in Xenopus oocytes. It is filed as cell-based. The settings on record: low GABA; wild-type α1β3. The procedure:
(§1) Receptor expression and electrophysiological recordings were conducted as described in detail previously ([Sugasawa et al., 2020]). In brief, α1β3 GABAA receptors were expressed in oocytes from the African clawed frog (X. laevis). The wild-type α1 and β3 subunits were of human origin (Genbank accession numbers NM_000806.5 and NM_000814.5, respectively). The α1 clone containing the Q-to-L mutation to the classic neurosteroid binding site ([Hosie et al., 2006]) was of rat origin. (The glutamine residue in ELIC-α1GABAAR is Q242, whereas the corresponding residue in rat α1 is Q241. For simplicity, the residue is referred to as Q242 for both rat and ELIC-α1GABAAR.) The oocytes were purchased as quarter ovaries from Xenopus1 (Dexter, MI, USA). Following digestion in 2% w/v (mg·ml^−1) collagenase A, the oocytes were injected with a total of 12 ng cRNA per oocyte in a 5:1 ratio (α1:β3) and incubated at 15°C for 2–3 days prior to electrophysiological recordings in ND96 (96-mM NaCl, 2-mM KCl, 1.8-mM CaCl2, 1-mM MgCl2, 5-mM HEPES; pH 7.4) supplemented with 100 U·ml^−1 penicillin and 100 μg·ml^−1 streptomycin.
(§2) Electrophysiological recordings were conducted at ≈22°C using standard two-electrode voltage clamp. The voltage and current electrodes (G120F-4, OD = 1.20 mm, ID = 0.69 mm; Warner Instruments, Hamden, CT, USA) were filled with 3-M KCl and had resistances of 0.3–1 MΩ. The oocytes were clamped at −60 mV. The chamber (RC-1Z; Warner Instruments) was perfused with ND96 at 5–8 ml·min^−1. Solutions were gravity-applied. The current responses were amplified with an Axoclamp 900A (Molecular Devices, San Jose, CA, USA) or OC-725C amplifier (Warner Instruments), digitized with a Digidata 1200 series digitizer (Molecular Devices) and stored on PC hard drive using pClamp (Molecular Devices; RRID:SCR_011323). Current amplitudes were determined using Clampfit (Molecular Devices).
A standard experiment consisted of a several-minute long applications of GABA followed immediately by a co-application of GABA + modulator and a wash in GABA. For normalization purposes, each cell was exposed to the combination of saturating (1-mM) GABA + 50-μM propofol, assumed to fully activate all receptors in the cell ([Eaton et al., 2016]).
In general terms: Two-electrode voltage clamp holds a large cell at a set potential and records current.

The test system of assay [3] is T3, α1^Q242Lβ3 GABAA receptors.
T3 construct: expressed in transfected cells; host or cells: Xenopus laevis oocytes, cRNA injected 5:1 (α1:β3)
In words: Two-electrode voltage clamp, α1(Q242L) mutant receptors in Xenopus oocytes. It is filed as cell-based, rat α1, human β3. The settings on record: low GABA; α1(Q242L)β3. The procedure: as §1, §2
A standard experiment consisted of a several-minute long applications of GABA followed immediately by a co-application of GABA + modulator and a wash in GABA. […]

Assay [4] has as its target T1, ELIC-α1GABAAR. Format: binding. The procedure:
Excitation and emission spectra were obtained using a FluoroMax Plus-C fluorometer (Horiba Instruments, Tokyo, Japan). For obtaining emission spectra, 280 nm was used as the excitation wavelength and emission was recorded from 300 to 450 nm. The excitation and emission slit widths used for obtaining emission spectra were 1 and 5 nm. For protein-ligand binding experiments, three emission spectra were obtained and averaged after each addition of a ligand or sodium iodide (NaI). The averaged spectra were smoothed using the Savitzky–Golay method before analysis.
One hundred microlitres of purified ELIC-α1GABAAR (0.3 μM in Buffer A + 0.015% DDM) was transferred into a 50-μl window quartz cuvette (Starna Cells, Atascadero, CA, USA), which was placed in a cuvette holder maintained at 4°C. […] Two microlitres of NaI (AK Scientific, Union City, CA, USA; 5-M stock prepared in 0.1-Mm sodium hydrosulfite [Sigma-Aldrich, St. Louis, MO, USA]) was added to the protein (final concentration = 100 mM) and incubated for 10 min to reduce the fluorescence emission from hydrophilic tryptophans. To measure the concentration–dependent effects of NS on tryptophan fluorescence, 1 μl of NS from each 100× stock solution was sequentially added to the NaI-equilibrated protein and thoroughly mixed to achieve concentrations from 0.01 to 50 μM. […]
The source holds these as a separate data set.

Compound `CC(=O)[C@H]1CCC2C3CC[C@H]4C[C@@](C)(O)CC[C@]4(C)C3CC[C@@]21C` (stereo partly drawn) [Epi-GX, epi-ganaxolone] displayed a Hill slope in assay [1] (3β-OH NS, MQ290 1 μM) of −0.67 ± 0.30. Besides, the “potentiation of GABA-elicited currents” value in assay [2] was “do not”.
On to `CC(=O)[C@H]1CCC2C3CC[C@@H]4C[C@@H](O)CC[C@]4(C)C3CC[C@@]21C` (stereo partly drawn) [Epi-PREG, Epi-pregnanolone], for which the Hill slope in assay [1] (3β-OH NS, MQ290 1 μM) is listed as −0.77 ± 0.42. Besides, the “potentiation of GABA-elicited currents” value in assay [2] is “potentiates”. Moreover, the “potentiating effect with α1(Q242L) mutation” value in assay [3] is recorded as “prevented”.
Regarding `CC(=O)[C@H]1CC[C@H]2[C@@H]3CC[C@H]4C[C@](C)(O)CC[C@]4(C)[C@H]3CC[C@]12C` [GX, ganaxolone], in assay [1] (3α-OH NS, MQ290 3 μM), the Hill slope is −1.57 ± 0.26.
The same measure, in the same setting: to `CC(=O)[C@H]1CC[C@H]2[C@@H]3CC[C@@H]4C[C@H](O)CC[C@]4(C)[C@H]3CC[C@]12C` [PREG, pregnanolone] belongs −1.02 ± 0.35.
On to `CO[C@H]1CCC2C3CC[C@H]4C[C@H](O)CC[C@]4(C)C3CC[C@@]21C` (stereo partly drawn) [YX03], for which, in assay [4], the “prevention of AlloP induced quenching” value is reported as “partially prevents”. Further, the “quenching of ELIC-α1GABAAR tryptophan fluorescence” value in assay [4] (YX03 10 and 30 µM) is “absent; also recorded: does not quench”. The Hill slope in assay [1] (3α-OH NS, MQ290 3 μM) is −0.98 ± 0.37. For the same compound, in assay [2], the “potentiation of GABA-elicited currents” value is “enhances; also recorded: potentiates”. Besides, the “potentiating effect with α1(Q242L) mutation” value in assay [3] was “blocked”.

For orientation: Hill slope means the slope factor of the fitted curve.
